Reference: patent US20170020900A1, “METHODS FOR SCREENING ANTIMICROBIAL AND ANTIVIRAL COMPOUNDS AND USES THEREOF” (The General Hospital Corporation, priority 2006, published 2017)
Converted amounts (≈) assume the structure as drawn. Residues, ends and D or L forms follow the SMILES beside them. *: point of attachment. CH2Cl = ClC*

Columns and labels:
[1] = test system: C. albicans strain MLR62; assay: C. elegans-Candida killing assay, compound library screen in 96-well plates; format: in vivo, Candida albicans; conditions: for Killing: glp-4, sek-1 nematodes, day 6, compound 33.33 μg/ml, 13.33 μg/ml, or 6.67 mM depending on library
Method: For testing the efficacy of chemical compounds, C. albicans strain MLR62 was inoculated into 2 ml of YPD and grown at 30° C. for 24 hours; 10 μl of the culture was spread on 35-mm tissue-culture plates (Falcon) containing brain heart infusion (BHI) agar (Difco) with kanamycin (45 μg/ml), ampicillin (100 μg/ml), and streptomycin (100 μg/ml). The plates were incubated at 30° C. for 24 hours. C. elegans animals at the L4 developmental stage (grown as detailed above under C. elegans liquid medium killing assays) were transferred from a lawn of E. coli HB101 onto C. albicans lawns on BHI medium, incubated at 25° C. for 30 minutes, and then pipetted in 50 μl into 96-well plate wells that contained 100 μl liquid media (79% of M9 buffer, 20% BHI media, 2 μM cholesterol and 90 μg/ml kanamycin). C. elegans glp-4; sek-1 nematodes were pipetted into 96-well plates that contained compounds from chemical libraries. Library 1361 was assembled by Biomol and contains well-characterized compounds that affect many different aspects of cellular pathways. The NINDS custom collection (plates 501-503) was put together by MicroSource Discovery Systems for the National Institute of Neurological Disorders and Stroke (NINDS), the Huntington's Disease Society of America (HDSA), the Amyotrophic Lateral Sclerosis (ALS) Association, and the Hereditary Disease Foundation (HDF). It mostly contains FDA approved drugs. The Prestwick library (plate 1569) contains compounds that are known to be safe and bioactive in humans. The majority of the compounds are marketed drugs.
On day 6, nematodes were evaluated for survival, filament formation and optical density. The plates were incubated at 25° C. and examined on day 6 for survival with a Nikon SMZ645 dissecting microscope. In addition, images were obtained using a CellWorx High Content Cell Analysis System (Applied Precision) at 4× magnification. Dead worms were counted but not removed. […] Each compound was also scored by the number of dead worms in the well that developed hyphea. […] Compounds were categorized as having a minimal effect on filament formation if 25-75% of the dead worms developed hyphea.
Approximately 25 nematodes were used to analyze each chemical compound tested. Two controls were used in all plates. […] In this pilot screen, we considered a compound as a “hit” when survival in the compound well with was 50% and above of the median survival of the control wells. Depending on the compound library, the final concentration of the compounds was 33.33 μg/ml, 13.33 μg/ml, or […].

[2] = test system: E. faecalis; assay: Bacterial colonization of the nematode intestine (CFU per worm); format: in vivo, Enterococcus faecalis; conditions: 100% = 3.28 × 10^4 CFU/worm
Method: Infected worms were washed three times with M9 buffer containing 1 mM sodium azide. Approximately 10 worms were transferred to a 2 ml microcentrifuge tube and the volume was brought to 250 μl. Fifty μl of buffer was removed and plated to determine the number of external CFU.

[3] = test system: E. faecalis strain MMH594; assay: MIC, 2-fold broth microdilution in BHI media (NCCLS); format: cell-based, Enterococcus faecalis; conditions: Enterococcus faecalis, E30 value is at its aqueous solubility limit, read-out: MIC
Method: Worm survival was scored manually after 6 days of incubation. […] MICs were determined against E. faecalis strain MMH594 using 2-fold dilution in BHI media according to the broth microdilution protocol of the NCCLS (CLSI) (National Committee for Clinical Laboratory Standards, Approved Standard M7-A5; Methods for Dilution Antimicrobial Susceptibility Tests for Bacteria that Grow Aerobically, Villanova, Pa.: NCCLS (2000)).

[4] = test system: E. faecalis; assay: Curing of a nematode E. faecalis infection on solid medium by antibiotic treatment; format: in vivo, Enterococcus faecalis; conditions: worms transferred to E. faecium lawns
Method: FIGS. 11A-11D show the curing of a nematode E. faecalis infection on solid medium by antibiotic treatment. FIG. 11A is a graph depicting the Kaplan-Meier survival curves of wild-type N2 C. elegans feeding continuously on lawns of E. faecalis (Efs) V583 (▴) or E. faecium (Efm) DO (▾). Nematodes feeding for 24 hours on E. faecalis and subsequently transferred to lawns of E. faecium (▪) die with an LT50 of 14.9 days. Error bars equal SEM. […] FIG. 11C is a graph showing the antibiotic concentrations required to promote rescue of E. faecalis infected N2 nematodes. […] Error bars are standard deviations. […] Error bars equal SEM.
N2 or glp-4(bn2ts); sek-1(km4) worms were synchronized by isolating eggs from gravid adults, hatching the eggs overnight in M9 buffer, and plating L1-stage worms onto lawns of E. coli on NGM agar media. Worms were grown to sterile, young adults by incubation at 25° C. for 48 to 52 hours, washed off the plates with M9 buffer, resuspended and washed in M9 buffer, deposited onto lawns of E. faecalis grown on BHI agar plates containing kanamycin at 80 μg/ml to inhibit E. coli growth, incubated for 8 to 12 hours at 25° C., and resuspended in M9 buffer. For assays using agar media, approximately 35 infected worms were washed and then deposited onto 35 mm plates containing the appropriate antibiotics. Plates were incubated at 25° C. and scored for worm survival at regular intervals. Worms were considered dead if they were unresponsive to touch with a platinum wire pick. For the initial assays using liquid media, approximately 80 infected worms were transferred to wells of a 6 well plate containing 2 ml media consisting of 10% BHI 80 μg/ml kanamycin, 90% M9 buffer, and the appropriate antibiotics. The plates were incubated without agitation at 25° C. and 80-85% relative humidity.

Molecule	Killing [1]	also measured
CCCCC(C)(O)C/C=C/[C@H]1[C@H](O)CC(=O)[C@@H]1CCCCCCC(=O)O (mixture of isomers) [Misoprostol, free acid]	0.464	
CCCCCCCCCCCCCCC[C@H](O)[C@@H](N)CO (racemic) [DL-Dihydrosphingosine]	0.485	
CCCCC/C=C\C/C=C\C/C=C\C=C\[C@H](CCCC(=O)O)OO [5 (S) HPETE]	0.261	
CCCCCCCCCCC/C=C\C(C)(C)/C=C\CCCC(=O)O [7,7-Dimethyleicosadienoic acid]	0.304	
CCCCC[C@@H](/C=C/C=C\C/C=C\C/C=C\CCCC(=O)O)OO [15 (S) HPETE]	0.412	
N#CC(=Cc1ccc2[nH]ccc2c1)C(N)=C(C#N)C#N [AG-370]	0.111	
N#C/C(=C/c1ccc(O)c(O)c1)C(=O)NCc1ccccc1 [AG-490]	0.462	
COc1cc2ncnc(Nc3cccc(Cl)c3)c2cc1OC [AG-1478]	0.3	
C[C@H](N)C(=O)N[C@@H](C)C(=O)N[C@@H](Cc1ccccc1)C(=O)CCl [ALA-ALA-PHE-CMK] (H-Ala-Ala-Phe-CH2Cl)	0.448	
CC(=O)N[C@@H](CSC/C=C(\C)CC/C=C(\C)CCC=C(C)C)C(=O)O [Acetyl (N) s farnesyl 1 cys]	0.4	
Cc1n[nH]c(=O)[nH]c1=O [Azathymine, 6]	0.480	
CO/C1=C\C(C)=C\[C@@H](C)[C@@H](O)[C@@H](C)C/C(C)=C/C=C/[C@H](OC)[C@@H]([C@@H](C)[C@@H](O)[C@H](C)[C@@]2(O)C[C@@H](O)[C@H](C)[C@@H](C(C)C)O2)OC1=O [Bafilomycin A1]	0.333	
O=C(/C=C/c1ccc(O)c(O)c1)OCCc1ccccc1 [Caffeic acid phenethyl ester]		fluorescence within the nematode intestine (GFP-expressing C. albicans) ([1]; FIG. 18A): no fluorescence within the intestine
O=C(NC(NC(=S)Nc1ccc([N+](=O)[O-])cc1)C(Cl)(Cl)Cl)c1cccc([N+](=O)[O-])c1 (stereo not shown) [Compound E1]		Amt. Colonization vs untreated [2]: 1%; MIC [3]: 31.3 µg/mL (≈ 63.5 µM)
O=C(CCN1C(=O)/C(=C2/SC(=S)N(CCC(=O)Nc3ccccc3C(=O)O)C2=O)SC1=S)Nc1ccccc1C(=O)O [Compound F1]		Amt. Colonization vs untreated [2]: 3%; MIC [3]: > 125 µg/mL
O=c1[nH]c2ccc(/N=C/c3cc(I)cc(I)c3O)cc2[nH]1 [Compound H1]		Amt. Colonization vs untreated [2]: 1%; MIC [3]: 15.6 µg/mL (≈ 30.9 µM)
O=C1c2ccccc2-c2ncnc3ccc(NC4CCCCC4)c1c23 [Compound J1]		Amt. Colonization vs untreated [2]: 11%; MIC [3]: 2 µg/mL (≈ 6.07 µM)
COc1ccc(/C=C/C2=CCN(Cc3ccccc3)CC2)cc1 [Compound K1]		Amt. Colonization vs untreated [2]: 61%; MIC [3]: > 125 µg/mL
c1ccc(-c2ccc(CN3CCN(c4ccccn4)CC3)cc2)cc1 [Compound L1]		Amt. Colonization vs untreated [2]: 101%; MIC [3]: > 125 µg/mL

Molecule	Killing [1]	also measured
CC1(C)C(C=C(Cl)Cl)C1C(=O)NCCCOC(=O)Nc1ccc(Cl)cc1 (stereo not shown) [Compound M1]		Amt. Colonization vs untreated [2]: 8%; MIC [3]: > 125 µg/mL
CC(Oc1cccc(Cl)c1)C(=O)N/N=C/c1cc([N+](=O)[O-])ccc1O (stereo not shown) [Compound N1]		Amt. Colonization vs untreated [2]: 5%; MIC [3]: 3.9 µg/mL (≈ 10.7 µM)
O=[N+]([O-])c1cc(O)ccc1/C=N/Nc1nc(NCc2ccccc2)nc(N2CCOCC2)n1 [Compound O1]		Amt. Colonization vs untreated [2]: 8%; MIC [3]: 15.6 µg/mL (≈ 34.6 µM)
C=C1[C@@H](C)[C@H]2[C@H](Cc3ccccc3)NC(=O)[C@]23OC(=O)/C=C/[C@H](O)CCC[C@@H](C)C/C=C/[C@H]3[C@@H]1O [Cytochalasin B]	0.438	
CC/C=C\C/C=C\C/C=C\C/C=C\C/C=C\CCCC(=O)O [Eicosapentaenoic acid (20:5 n-3)]	0.448	
COC(=O)c1c(C)[nH]c(C)c1C(=O)c1ccccc1Cc1ccccc1 [FPL-64176]	0.429	
CCCCC/C=C\C[C@@H](O)/C=C/C=C/C=C\[C@@H](O)CCCC(=O)O [Leukotriene B4]	0.483	
CCCCC[C@H](O)/C=C/C=C\C=C\C=C\[C@@H](O)[C@@H](O)CCCC(=O)O [Lipoxin A4]	0.273	
Clc1ccc2ncnc(NCc3ccc4c(c3)OCO4)c2c1 [MBCQ]	0.32	
C[N+]1(CCCCC[N+]2(C)CCCC2)CCCC1.O=C([O-])C(O)C(O)C(=O)O.O=C([O-])C(O)C(O)C(=O)O [Pentolinium bitartrate]	0.227	
CC(=O)[C@H]1CC[C@H]2[C@@H]3CC=C4C[C@@H](OS(=O)(=O)[O-])CC[C@]4(C)[C@H]3CC[C@]12C.[Na+] [Pregnenolone sulfate, sodium salt]	0.438	
N#Cc1cc2c(OCC(O)CN3CCN(C(c4ccccc4)c4ccccc4)CC3)cccc2[nH]1 (stereo not shown) [SDZ-201106]	0.432	
CN(C)[C@@H]1C(O)=C(C(N)=O)C(=O)[C@@]2(O)C(O)=C3C(=O)c4c(O)cccc4[C@@](C)(O)[C@H]3C[C@@H]12 [Tetracycline]		survival of E. faecalis infected N2 C. elegans, p (Kaplan-Meier) ([4]; tetracycline 0.08 μg/ml): 0.56; survival of E. faecalis infected N2 C. elegans, p (Kaplan-Meier) ([4]; tetracycline 0.4 μg/ml): < 0.06; survival of E. faecalis infected N2 C. elegans, p (Kaplan-Meier) ([4]; tetracycline 2 μg/ml): < 0.0014; survival of E. faecalis infected N2 C. elegans, p (Kaplan-Meier) ([4]; tetracycline 10 μg/ml): < 0.0001
Docosatrienoic acid (22:3 n-3)	0.439	
Eicosatrienoic acid (20:3 n-3)	0.333	
Hydrocortisone hemisuccinate	0.300	
Hydroxytacrine maleate	0.467	
Ikarugamycin	0.429	
